Experimental findings from PubChem BioAssay AID724 (NMMLSC, 2007) are described below.

The source made the active and inactive calls. The rule behind the calls is not given here.

This experiment addresses fMet-Leu-Phe receptor (Homo sapiens) (UniProt P21462). Nature of the experiment: FPR1 fluorescent ligand binding inhibitors, dose response, cell-based, flow cytometry, Ki from IC50 (AID 724). The settings on record: FPR1-expressing cells, fluorescent ligand binding competition; for IC50: measured here: IC50 of ligand binding inhibition. A general note: A flow cytometer gives signals particle by particle.

Chain of fMet-Leu-Phe receptor (Homo sapiens) (P21462 whole entry, looked up): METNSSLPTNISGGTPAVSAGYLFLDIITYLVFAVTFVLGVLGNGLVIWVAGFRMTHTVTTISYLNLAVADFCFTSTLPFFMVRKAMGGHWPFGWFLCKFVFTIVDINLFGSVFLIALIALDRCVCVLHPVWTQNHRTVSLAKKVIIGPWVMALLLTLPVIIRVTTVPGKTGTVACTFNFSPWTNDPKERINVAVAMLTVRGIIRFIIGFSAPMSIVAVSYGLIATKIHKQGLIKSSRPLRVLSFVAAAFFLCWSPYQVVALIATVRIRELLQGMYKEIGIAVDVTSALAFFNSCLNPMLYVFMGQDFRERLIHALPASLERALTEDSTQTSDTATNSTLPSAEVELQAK

Consider `O=C(C1=C(O)C(=O)N(CCCn2ccnc2)C1c1cccnc1)c1ccco1` (stereo not given), for which the Ki is > 44.3 µM (inactive).
For the molecule `COc1ccc(OC)c(C2/C(=C(\O)c3ccccc3)C(=O)C(=O)N2c2ccc(C)c(Cl)c2)c1` (stereo not given), the Ki entry is “inactive” and the half-maximal inhibitory concentration (IC50) was 25.7 µM.
The like results for `COCCN1C(=O)C(=O)/C(=C(/O)c2ccccc2)C1c1cc(OC)ccc1OC` (stereo not given) were, in that order, 1.8 µM and 2.8 µM.
Take `COc1cc(C2C(C(C)=O)=C(O)C(=O)N2c2ccc(Br)cc2)ccc1O` (stereo not given): the Ki is > 44.3 µM (inactive).
On to `COc1ccc(C2/C(=C(\O)c3ccc(C)cc3)C(=O)C(=O)N2Cc2cccnc2)c(OC)c1` (stereo not given), for which the Ki result is “inactive” and the IC50 was found to be 59.7 µM.
The corresponding values for `COc1ccc(OC)c(C2/C(=C(\O)c3ccccc3)C(=O)C(=O)N2c2cccnc2)c1` (stereo not given) are 6 µM and 9.2 µM.
The like results for `COc1ccc(C2/C(=C(\O)c3ccccc3)C(=O)C(=O)N2c2cccc(Cl)c2)c(OC)c1` (stereo not given) were, in that order, “inactive” and 47.5 µM.
For `COCCCN1C(=O)C(=O)/C(=C(/O)c2ccccc2)C1c1ccc(O)c(OC)c1` (stereo not given), the Ki entry is “inactive” and the IC50 came out at 50.5 µM.
The molecule `COc1ccc(-c2c(C(F)(F)F)oc3cc(OC(=O)c4ccco4)ccc3c2=O)cc1OC` yielded an IC50 of 5 µM.
For `CCCCCCN1C(=O)C(=O)/C(=C(\O)c2ccccc2)C1c1ccc(O)c(OC)c1` (stereo not given), the Ki is 4.7 µM and the IC50 came to 7.2 µM.
Take `O=C1C(=O)N(c2ccc(F)cc2)C(c2ccc(Br)cc2)/C1=C(/O)c1ccccc1` (stereo not given): the Ki was > 44.3 µM (inactive).
Same read-out and setting: the result for `O=C(C1=C(O)C(=O)N(CCCn2ccnc2)C1c1cccnc1)c1cc2ccccc2o1` (stereo not given) reads > 44.3 µM (inactive).
Same read-out and setting: the same measure for `COc1ccc(C2C(C(=O)c3cc4ccccc4o3)=C(O)C(=O)N2CCN(C)C)cc1OC` (stereo not given): > 44.3 µM (inactive); for `CCCCCCOc1cccc(N2C(=O)C(=O)/C(=C(\O)c3ccccc3)C2c2cccc(F)c2)c1` (stereo not given): > 44.3 µM (inactive).
The same measure, in the same setting: the same measure for `COc1cc(C2C(C(=O)c3cc4ccccc4o3)=C(O)C(=O)N2CCN(C)C)ccc1O` (stereo not given): > 44.3 µM (inactive).
With `O=C1C(=O)N(CN2CCOCC2)C(c2ccc(Br)cc2)/C1=C(\O)c1ccccc1` (stereo not given), the Ki was > 44.3 µM (inactive).
As to `COc1ccc(OC)c(C2/C(=C(\O)c3ccc(C)cc3)C(=O)C(=O)N2CCC(=O)O)c1` (stereo not given), the Ki was > 44.3 µM (inactive).
`Cc1nc2c(-c3ccc(Cl)cc3)c(C(F)(F)F)[nH]n2c(=O)c1Cc1ccccc1` gave an IC50 of 3.8 µM. This counts as single-digit micromolar.
Consider `COc1ccc(/C(O)=C2/C(=O)C(=O)NC2c2ccc(OC)cc2OC)cc1` (stereo not given), for which the Ki is > 44.3 µM (inactive).
The same measure, in the same setting: the same measure for `Cc1ccc(N2C(=O)C(=O)/C(=C(\O)c3ccccc3)C2c2cccc(F)c2)cc1Br` (stereo not given): > 44.3 µM (inactive).
For `COc1ccc(C2/C(=C(\O)c3ccccc3)C(=O)C(=O)N2CCCn2ccnc2)c(OC)c1` (stereo not given), the Ki was 3.4 µM and the IC50 was found to be 5.2 µM.
Take `CCc1cc2c(=O)c(-c3nc4ccccc4n3C)c(C)oc2cc1OC(C)=O`: the half-inhibitory concentration (IC50) turned out to be 0.5 µM.
As to `N#Cc1c(N/C(=C\C(=O)c2ccccc2)C(=O)O)sc2c1CCC2`, the Ki is > 44.3 µM (inactive).
In the case of `O=C(C1=C(O)C(=O)N(CCc2ccccc2)C1c1ccc(Cl)cc1)c1cccs1` (stereo not given), the Ki was 6.9 µM and the concentration for half-maximal inhibition (IC50) came to 10.6 µM.
On to `COc1ccc(C2C(C(=O)c3ccco3)=C(O)C(=O)N2CCCN2CCOCC2)cc1OC` (stereo not given), for which the Ki was > 44.3 µM (inactive).
Turning to `COc1ccc(C2C(C(=O)c3cccs3)=C(O)C(=O)N2CCCn2ccnc2)cc1` (stereo not given), the Ki was 4.7 µM and the IC50 was 7.1 µM.
The corresponding values for `COc1ccc(C2C(C(=O)c3cccs3)=C(O)C(=O)N2CCN2CCOCC2)c(OC)c1` (stereo not given) are 2.9 µM and 4.4 µM.
Regarding `Cc1ccc(/C(O)=C2\C(=O)C(=O)N(c3nnc(C)s3)C2c2ccc(C(C)C)cc2)cc1` (stereo not given), the Ki was > 44.3 µM (inactive).
The same measure, in the same setting: the result for `Cc1ccc(/C(O)=C2\C(=O)C(=O)N(Cc3cccnc3)C2c2ccc(Br)cc2)cc1` (stereo not given) reads > 44.3 µM (inactive); that for `O=C(O)CCCN1C(=O)C(=O)/C(=C(/O)c2ccccc2)C1/C=C/c1ccccc1` (stereo not given), > 44.3 µM (inactive).
Regarding `CC(C)c1ccc(C2/C(=C(\O)c3ccccc3)C(=O)C(=O)N2Cc2cccnc2)cc1` (stereo not given), the Ki result is “inactive” and the half-maximal inhibitory concentration (IC50) is 50.7 µM.
The like results for `COCCCN1C(=O)C(=O)/C(=C(/O)c2ccccc2)C1c1ccc(C(C)C)cc1` (stereo not given) were, in that order, “inactive” and 31.1 µM.
`O=C(C1=C(O)C(=O)N(CCCN2CCOCC2)C1c1cccnc1)c1cc2ccccc2o1` (stereo not given): the Ki is > 44.3 µM (inactive).
The same measure, in the same setting: the same measure for `O=C1NC(c2ccc(Br)cc2)/C(=C(\O)c2ccc(Cl)cc2)C1=O` (stereo not given): > 44.3 µM (inactive).
`COc1ccccc1-c1c(C(F)(F)F)oc2cc(OC(=O)c3ccco3)ccc2c1=O` showed an IC50 of 1.7 µM.
In the case of `COc1ccc(C2C(C(=O)c3ccco3)=C(O)C(=O)N2CCN2CCOCC2)c(OC)c1` (stereo not given), the inhibition constant Ki is 6.4 µM and the half-maximal inhibitory concentration (IC50) amounted to 9.8 µM.
As for `COc1ccc(-c2c(C(F)(F)F)oc3cc(OC(=O)c4cccnc4)ccc3c2=O)cc1OC`, the half-inhibitory concentration (IC50) is 13.6 µM. That is a double-digit micromolar value.
Take `COc1ccc(/C(O)=C2/C(=O)C(=O)N(CCc3c[nH]c4ccccc34)C2c2ccc(C(C)C)cc2)cc1` (stereo not given): the Ki is > 44.3 µM (inactive).
For `O=C(Oc1ccc2c(=O)c(-c3ccccc3Cl)c(C(F)(F)F)oc2c1)c1cccs1`, the IC50 came out at 1.7 µM.
With `CC(=O)C1=C(O)C(=O)N(CCc2c(C)[nH]c3ccccc23)C1c1cccc(F)c1` (stereo not given), the Ki entry is “inactive” and the IC50 came to 17.2 µM.

As usually defined, the Ki is the equilibrium dissociation constant of an inhibitor or competing ligand from its target. In general, IC50 refers to the concentration that gives 50% inhibition. A low value points to higher potency.
